The values that follow come from patent US20180312493A1, “Antibiotic Compounds, Pharmaceutical Formulations Thereof And Methods And Uses Therefor” (Simon Fraser University, priority 2015, published 2018).

The target of test [1] is T1, MRSA Pyk (Staphylococcus aureus, UniProt Q6GG09).
T1 construct: made in house; host or cells: E. coli BL-21 (DE3)
Put plainly: MRSA pyruvate kinase (PK) activity, continuous LDH-coupled assay. It counts as biochemical, methicillin resistant S. aureus (MRSA252). The gist of the method: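 His-tagged MRSA PK (strain Sanger 252) and human PK isoforms expressed in E. coli BL-21 (DE3) and Ni-NTA purified, used at 15 nM in an LDH-coupled assay following NADH oxidation at 340 nm, 30° C, up to 5 min, ≤1% DMSO. IC50 from four-parameter variable-slope fit; Ki with PEP 2-20 mM, ADP fixed 2 mM, inhibitor 0-400 nM.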

In test [2] the test system is VRE#2 (2010A). The test can be described thus: In vitro susceptibility, broth microdilution (MIC). The settings on record: VRE#2 (2010A); read-out: Antimicrobial activity (MIC) VRE#2. In kind it is cell-based, vancomycin resistant Enterococci. The gist of the method: (§1)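 MIC determined by CLSI 2-fold broth microdilution in cation-adjusted Mueller–Hinton broth at ~2.5×10^5 CFU/ml, final compound 0.031–64 μg/ml, 18–24 h at 37 °C. MIC is the lowest concentration giving complete growth inhibition by background-corrected OD600 versus compound-free wells; duplicate or triplicate wells, replicated at least twice.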
(In broth dilution the organism is exposed to a series of concentrations in liquid medium.)

Test [3] concerns S. typhimurium (ATCC BAA-185). Put plainly: In vitro susceptibility, broth microdilution (MIC). In kind it is cell-based. The settings on record: Salmonella enterica, read-out: Antimicrobial activity (MIC) S. typhimurium. Put shortly: as §1
The subject of test [4] is A. baumannii (ATCC 19606). The test can be described thus: In vitro susceptibility, broth microdilution (MIC). It counts as cell-based. The settings on record: Acinetobacter baumannii, ATCC19606; A. baumannii ATCC 19606 (values without asterisk); read-out: Antimicrobial activity (MIC) A. baumannii. The gist of the method: as §1

In general, IC50 refers to the concentration needed to halve the response being measured. Usually MIC stands for the lowest concentration that inhibits growth of the organism.

The structures appear in SMILES notation. Values after ≈ are worked out from the molar mass of the structure shown.

T1 sequence (Q6GG09 whole entry): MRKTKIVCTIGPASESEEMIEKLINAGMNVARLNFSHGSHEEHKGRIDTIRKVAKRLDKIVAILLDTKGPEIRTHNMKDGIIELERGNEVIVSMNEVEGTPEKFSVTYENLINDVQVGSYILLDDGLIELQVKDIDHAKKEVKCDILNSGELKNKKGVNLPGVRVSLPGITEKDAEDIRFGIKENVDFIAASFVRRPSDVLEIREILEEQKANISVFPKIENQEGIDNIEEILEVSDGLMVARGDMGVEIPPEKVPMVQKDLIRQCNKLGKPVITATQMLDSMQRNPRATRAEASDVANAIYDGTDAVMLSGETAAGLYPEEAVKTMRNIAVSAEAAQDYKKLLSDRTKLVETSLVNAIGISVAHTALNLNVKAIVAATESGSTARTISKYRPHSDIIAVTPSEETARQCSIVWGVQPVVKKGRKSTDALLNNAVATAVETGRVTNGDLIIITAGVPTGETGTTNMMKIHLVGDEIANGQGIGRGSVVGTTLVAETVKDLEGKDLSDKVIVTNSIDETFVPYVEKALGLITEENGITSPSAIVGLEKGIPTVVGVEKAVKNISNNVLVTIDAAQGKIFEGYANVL

`C[N+](C)(C)CCON=C(c1c(-c2cc3cc(Cl)ccc3[nH]2)[nH]c2cc(Br)ccc12)C(F)(F)F` (racemic) [Compound 221, 2-(((1-(6-Bromo-5′-chloro-1H,1′H-[2,2′-biindol]-3-yl)-2,2,2-trifluoroethylidene)amino)oxy)-N,N,N-trimethylethan-1-aminium Iodide] showed a half-inhibitory concentration (IC50) in test [1] of under 100 nM. Besides, the MIC in test [2] worked out at 2 µg/mL; in test [3] it was 64 µg/mL; in test [4] it was 32 µg/mL.

On to `CN(C)CCOC(=O)c1c(/C=C/c2ccc(Cl)cc2)[nH]c2cc(Br)ccc12` [Compound 60, (E)-2-(Dimethylamino)ethyl 6-bromo-2-(4-chlorostyryl)-1H-indole-3-carboxylate], for which the IC50 in test [1] was under 100 nM. The MIC in test [4] was over 64 µg/mL.

For `NCCOc1cc2[nH]c(-c3cc4ccc(Br)cc4[nH]3)cc2cc1Cl` [Compound 201, 2-((6′-Bromo-5-chloro-1H,1′H-[2,2′-biindol]-6-yl)oxy)ethan-1-amine], the concentration for half-maximal inhibition (IC50) in test [1] was under 100 nM. The MIC worked out at 4 µg/mL (≈ 9.88 µM) in test [2], 16 µg/mL (≈ 39.5 µM) in test [3] and 16 µg/mL (≈ 39.5 µM) in test [4].

On to `NCCNC(=O)c1c(-c2cc3cc(Cl)ccc3[nH]2)[nH]c2cc(Br)ccc12` [Compound 206, N-(2-Aminoethyl)-6-bromo-5′-chloro-1H,1′H-[2,2′-biindole]-3-carboxamide], for which the IC50 in test [1] is under 100 nM. In addition, the MIC in test [2] came out at 4 µg/mL (≈ 9.27 µM); in test [3] it was 64 µg/mL (≈ 148 µM); in test [4] it was 16 µg/mL (≈ 37.1 µM).
